Experimental findings from patent US20140135359A1, “METHODS OF DESIGNING, PREPARING, AND USING NOVEL PROTONOPHORES” (priority 2012, published 2014) are described below.

Like-named read-outs stand apart in the source and are kept apart here.

Assay [1] has as its system isolated rat liver mitochondria. Kind of assay: Uncoupling activity: increase in basal (state 4) oxygen consumption by oxygraphy. The note with it: for Measured Uncoupling (% uncoupling ± SEM @ 100 μM): Table 1A, relative to ADP-stimulated respiration = 100%. Type of assay: biochemical.
For assay [2] the test system is unchanged. Kind of assay: Residual functional capacity / inhibitory effect on ADP-stimulated (state 3) oxygen consumption. Type of assay: biochemical. The following applies: for inhibition of ADP-stimulated oxygen consumption: screening at 100 μM.
[3] abbreviates: Suppl. Table 1, 100 μM, 2-3 mitochondrial preparations.
The mark [4] stands for this setting: test conc. 100 μM, increase in basal (state 4) oxygen consumption as % of average ADP-stimulated (state 3) rate in vehicle-treated mitochondria.
Where [5] appears, read: test conc. 100 μM, functional capacity (state 3 minus state 4 rate) as % of vehicle-treated mitochondria.
Setting [6] is: test conc. 25 μM, increase in basal (state 4) oxygen consumption as % of average ADP-stimulated (state 3) rate in vehicle-treated mitochondria.
The mark [7] stands for this setting: test conc. 25 μM, functional capacity (state 3 minus state 4 rate) as % of vehicle-treated mitochondria.

Turning to `O=C(O)c1cc(O)c(O)c(O)c1` [gallic acid], the “Measured Uncoupling Activity (% uncoupling ± SEM @ 100 μM)” value in assay [1] (setting [3]) was −2 ± 1 % uncoupling. The “Uncoupling (%)” value in assay [1] (setting [4]) is listed as −2 ± 1%. The “Inhibitory effect (%)” value in assay [2] (test conc. 100 μM) was 2%. In addition, the “Residual capacity (%)” value in assay [2] (setting [5]) was found to be 98 ± 1%.

`O=c1c(-c2ccc(O)cc2)coc2cc(O)cc(O)c12` [genistein]: the “Measured Uncoupling Activity (% uncoupling ± SEM @ 100 μM)” value in assay [1] (setting [3]) stood at 74 ± 4 % uncoupling. Moreover, the “Measured Uncoupling (% uncoupling ± SEM @ 100 μM)” value in assay [1] (100 μM) was 74 ± 4 % uncoupling. Moreover, the “Uncoupling (%)” value in assay [1] (setting [6]) was found to be 8 ± 0%; in assay [1] (setting [4]), 74 ± 4%. The figures for the “Inhibitory effect (%)” value in assay [2] (test conc. 25 μM) and in assay [2] (test conc. 100 μM) were 15% and 6%, respectively. Moreover, the figures for the “Residual capacity (%)” value in assay [2] (setting [7]) and in assay [2] (setting [5]) were 77 ± 1% and 20 ± 0%, respectively.

With `COc1cc(/C=C/C(=O)c2ccc(O)cc2O)ccc1O` [homobutein], the uncoupling activity entry in assay [1] (50 μM in 0.1% DMSO (FIG. 19)) was “partial uncoupling”. For the same compound, in assay [1] (setting [3]), the “Measured Uncoupling Activity (% uncoupling ± SEM @ 100 μM)” value was 56 ± 5 % uncoupling. Besides, the “Measured Uncoupling (% uncoupling ± SEM @ 100 μM)” value in assay [1] (100 μM) was determined as 56 ± 5 % uncoupling. Also, the “Uncoupling (%)” value was 6 ± 0% in assay [1] (setting [6]) and 56 ± 5% in assay [1] (setting [4]). Also, the “inhibitory effect on oxidative phosphorylation” value in assay [2] (50 μM (FIG. 19)) is listed as “inhibition of ADP-stimulated consumption”. Further, the “Inhibitory effect (%)” value in assay [2] (test conc. 25 μM) turned out to be 15%; in assay [2] (test conc. 100 μM), 22%. Besides, the “Residual capacity (%)” value in assay [2] (setting [7]) was determined as 79 ± 7%; in assay [2] (setting [5]) it was 22 ± 3%.

For the compound `Oc1ccc(O)cc1` [hydroquinone], the “Measured Uncoupling Activity (% uncoupling ± SEM @ 100 μM)” value in assay [1] (setting [3]) amounted to 0 ± 1 % uncoupling. The “Uncoupling (%)” value in assay [1] (setting [4]) is reported as 0 ± 1%. Besides, in assay [2] (test conc. 100 μM), the “Inhibitory effect (%)” value came out at 10%. In addition, the “Residual capacity (%)” value in assay [2] (setting [5]) amounted to 90 ± 8%.

As for `O=c1c(O)c(-c2ccc(O)cc2O)oc2cc(O)cc(O)c12` [morin], the “Measured Uncoupling Activity (% uncoupling ± SEM @ 100 μM)” value in assay [1] (setting [3]) turned out to be 1 ± 0 % uncoupling. Also, the “Uncoupling (%)” value in assay [1] (setting [4]) is given as 1 ± 0%. The “inhibition of ADP-stimulated oxygen consumption” value (shortened to “inhibition”) in assay [2] was “inhibitory activity”. Besides, the “Inhibitory effect (%)” value in assay [2] (test conc. 100 μM) is 60%. Besides, the “Residual capacity (%)” value in assay [2] (setting [5]) was determined as 39 ± 3%.

With `O=c1c(O)c(-c2cc(O)c(O)c(O)c2)oc2cc(O)cc(O)c12` [myricetin], the “Measured Uncoupling Activity (% uncoupling ± SEM @ 100 μM)” value in assay [1] (setting [3]) is listed as 11 ± 0 % uncoupling. The “Uncoupling (%)” value was determined as 6 ± 3% in assay [1] (setting [6]) and 11 ± 0% in assay [1] (setting [4]). For the same compound, the “Inhibitory effect (%)” value in assay [2] (test conc. 25 μM) is on record as 28%; in assay [2] (test conc. 100 μM), 43%. Further, the “Residual capacity (%)” value in assay [2] (setting [7]) was 66 ± 2%; in assay [2] (setting [5]) it was 46 ± 3%.

Turning to `Oc1ccccc1` [phenol], in assay [1], the “Measured Uncoupling Activity (% uncoupling ± SEM @ 100 μM)” value amounted to 0 ± 0 % uncoupling and the “Uncoupling (%)” value is listed as 0 ± 0%. For the same compound, in assay [2], the “Inhibitory effect (%)” value was determined as 4% and the “Residual capacity (%)” value is given as 96 ± 4%.

`O=C(CCc1ccc(O)cc1)c1c(O)cc(O)cc1O` [phloretin]: the “Measured Uncoupling Activity (% uncoupling ± SEM @ 100 μM)” value in assay [1] (setting [3]) is listed as 15 ± 3 % uncoupling. The “Uncoupling (%)” value in assay [1] (setting [6]) was determined as 3 ± 1%; in assay [1] (setting [4]), 15 ± 3%. Moreover, the entries for the “Inhibitory effect (%)” value in assay [2] (test conc. 25 μM) and in assay [2] (test conc. 100 μM) were 0% and 44%, respectively. The entries for the “Residual capacity (%)” value in assay [2] (setting [7]) and in assay [2] (setting [5]) were 99 ± 12% and 41 ± 17%, respectively.

Regarding `Oc1cc(O)cc(/C=C/c2ccc(O)c(O)c2)c1` [piceatannol (trans)], the figures for the “Uncoupling (%)” value in assay [1] (setting [6]) and in assay [1] (setting [4]) were 1 ± 1% and 5 ± 1%, respectively. Besides, the “Inhibitory effect (%)” value in assay [2] (test conc. 25 μM) is 64%; in assay [2] (test conc. 100 μM) it was 89%. In addition, the results for the “Residual capacity (%)” value in assay [2] (setting [7]) and in assay [2] (setting [5]) were 35 ± 7% and 6 ± 3%, respectively.

With `Oc1cccc(O)c1O` [pyrogallol], in assay [1] (setting [3]), the “Measured Uncoupling Activity (% uncoupling ± SEM @ 100 μM)” value amounted to 1 ± 1 % uncoupling. For the same compound, the “Uncoupling (%)” value in assay [1] (setting [4]) turned out to be 1 ± 1%. Also, the “Inhibitory effect (%)” value in assay [2] (test conc. 100 μM) was 16%. Further, the “Residual capacity (%)” value in assay [2] (setting [5]) came to 83 ± 17%.

Regarding `O=c1c(O)c(-c2ccc(O)c(O)c2)oc2cc(O)cc(O)c12` [quercetin], the “Measured Uncoupling Activity (% uncoupling ± SEM @ 100 μM)” value in assay [1] (setting [3]) is given as 8 ± 1 % uncoupling. The results for the “Uncoupling (%)” value in assay [1] (setting [6]) and in assay [1] (setting [4]) were 4 ± 0% and 8 ± 1%, respectively. In addition, the “inhibition” value in assay [2] is “inhibitory activity”. Besides, the “Inhibitory effect (%)” value turned out to be 36% in assay [2] (test conc. 25 μM) and 80% in assay [2] (test conc. 100 μM). For the same compound, the “Residual capacity (%)” value in assay [2] (setting [7]) was found to be 60 ± 10%; in assay [2] (setting [5]) it was 12 ± 5%.

As to `Oc1cccc(O)c1` [resorcinol], in assay [1] (setting [3]), the “Measured Uncoupling Activity (% uncoupling ± SEM @ 100 μM)” value was 0 ± 0 % uncoupling. Moreover, in assay [1] (setting [4]), the “Uncoupling (%)” value is 0 ± 0%. In assay [2] (test conc. 100 μM), the “Inhibitory effect (%)” value is reported as 9%. Also, in assay [2] (setting [5]), the “Residual capacity (%)” value was found to be 91 ± 3%.

Regarding `Oc1ccc(C=Cc2cc(O)cc(O)c2)cc1` [resveratrol (trans)], the “Uncoupling (%)” value worked out at 0 ± 0% in assay [1] (setting [6]) and 2 ± 0% in assay [1] (setting [4]). The entries for the “Inhibitory effect (%)” value in assay [2] (test conc. 25 μM) and in assay [2] (test conc. 100 μM) were 29% and 62%, respectively. Also, the “Residual capacity (%)” value is listed as 71 ± 9% in assay [2] (setting [7]) and 36 ± 4% in assay [2] (setting [5]).

Turning to `O=C(O)c1ccccc1O` [salicylic acid], the “Measured Uncoupling Activity (% uncoupling ± SEM @ 100 μM)” value in assay [1] (setting [3]) is given as 4 ± 0 % uncoupling. The “Uncoupling (%)” value in assay [1] (setting [4]) is 4 ± 0%. Besides, the “Inhibitory effect (%)” value in assay [2] (test conc. 100 μM) came to 6%. In addition, in assay [2] (setting [5]), the “Residual capacity (%)” value turned out to be 90 ± 2%.

For `COc1ccc(-c2cc(=O)c3c(O)cc(O)c(-c4cc(-c5cc(=O)c6c(O)cc(OC)cc6o5)ccc4OC)c3o2)cc1` [sciadopitysin], in assay [1] (setting [3]), the “Measured Uncoupling Activity (% uncoupling ± SEM @ 100 μM)” value was −1 ± 0 % uncoupling. Also, the “Uncoupling (%)” value in assay [1] (setting [4]) is listed as −1 ± 0%. Also, the “Inhibitory effect (%)” value in assay [2] (test conc. 100 μM) was found to be 2%. Besides, the “Residual capacity (%)” value in assay [2] (setting [5]) amounted to 98 ± 0%.

For `COc1cc(C2Oc3cc([C@H]4Oc5cc(O)cc(O)c5C(=O)[C@@H]4O)ccc3OC2CO)ccc1O` (stereo partly shown) [silibinin (A and B), silibinin], in assay [1] (setting [3]), the “Measured Uncoupling Activity (% uncoupling ± SEM @ 100 μM)” value was 5 ± 1 % uncoupling. Moreover, in assay [1] (setting [4]), the “Uncoupling (%)” value turned out to be 5 ± 1%. For the same compound, the “inhibition” value in assay [2] is “inhibitory activity”. The “Inhibitory effect (%)” value in assay [2] (test conc. 100 μM) is on record as 73%. Further, in assay [2] (setting [5]), the “Residual capacity (%)” value was 22 ± 5%.

As to `C(=Cc1ccccc1)c1ccccc1` [stilbene (trans)], the “Uncoupling (%)” value in assay [1] (setting [4]) is on record as −1 ± 1%. Further, in assay [2] (test conc. 100 μM), the “Inhibitory effect (%)” value came to 1%. Besides, the “Residual capacity (%)” value in assay [2] (setting [5]) is listed as 99 ± 3%.

Consider `Cc1ccc(C(C)C)c(O)c1` [thymol], for which the “Measured Uncoupling Activity (% uncoupling ± SEM @ 100 μM)” value in assay [1] (setting [3]) was found to be 6 ± 0 % uncoupling. Further, the “Uncoupling (%)” value in assay [1] (setting [4]) came to 6 ± 0%. For the same compound, in assay [2] (test conc. 100 μM), the “Inhibitory effect (%)” value is reported as 29%. Besides, the “Residual capacity (%)” value in assay [2] (setting [5]) was found to be 65 ± 5%.

As for `Oc1cc(O)cc(/C=C/c2ccccc2)c1` [trans-pinosylvin, pinosylvin], the “Measured Uncoupling Activity (% uncoupling ± SEM @ 100 μM)” value in assay [1] (setting [3]) is 3 ± 3 % uncoupling. Moreover, the “Uncoupling (%)” value in assay [1] (setting [6]) turned out to be 0 ± 1%; in assay [1] (setting [4]), 3 ± 3%. The results for the “Inhibitory effect (%)” value in assay [2] (test conc. 25 μM) and in assay [2] (test conc. 100 μM) were 20% and 34%, respectively. Also, the results for the “Residual capacity (%)” value in assay [2] (setting [7]) and in assay [2] (setting [5]) were 80 ± 13% and 63 ± 4%, respectively.

As to `COc1cc(C=O)ccc1O` [vanillin], the “Measured Uncoupling Activity (% uncoupling ± SEM @ 100 μM)” value in assay [1] (setting [3]) was determined as 0 ± 1 % uncoupling. The “Uncoupling (%)” value in assay [1] (setting [4]) worked out at 0 ± 1%. The “Inhibitory effect (%)” value in assay [2] (test conc. 100 μM) stood at 26%. Also, in assay [2] (setting [5]), the “Residual capacity (%)” value is reported as 74 ± 16%.

Regarding “epigallocatechin gallate [(−) epigallocatechin gallate]”, the “Measured Uncoupling Activity (% uncoupling ± SEM @ 100 μM)” value in assay [1] (setting [3]) was found to be 0 ± 1 % uncoupling. In addition, the “Uncoupling (%)” value in assay [1] (setting [4]) was determined as 0 ± 1%. Moreover, in assay [2] (test conc. 100 μM), the “Inhibitory effect (%)” value is 2%. Moreover, the “Residual capacity (%)” value in assay [2] (setting [5]) is given as 98 ± 2%.
